According to patent publication US9428540B2, “Fatty acid esters of glucocorticoids as anti-inflammatory and anti-cancer agents” (priority 2007, dated 2016):
Where two headings read alike, the source gives them in different places.

How the values were obtained:
[1] = system: LUC reporter gene under the control of the PPARα 5′-flanking and promoter region; assay: LUC reporter gene activity in transiently transfected COS-1 cells (pMT-hGR); format: cell-based, Monkey; parameters: gene activation less than fluticasone propionate / luciferase activity/β-galactosidase (in percent (%) of Fluticasone propionate): concentration or dose not given beside the values; conditions: for luciferase activity/β-galactosidase (in percent (%) of Fluticasone propionate): COS-1 cells, harvested after 72 h
Protocol: Monkey kidney COS-1 cells (ATCC CRL 1650) were grown in Dulbecco's modified Eagle's medium (Gibco BRL, Grand Island, N.Y.) as described elsewhere (9). Transient transfections of COS-1 cells were performed as described elsewhere (10). The cells were plated at a density of 2×10^5 cells/well. Each well received 5 μg test plasmid, 5 μg β-galactosidase control plasmid as an internal control and either 2 μg expression plasmid, pMT-hGR or pGL3-basic as carrier. Plasmid details: The mouse PPARα gene is described elsewhere (11). Vectors expressing the LUC reporter gene under the control of the PPARα5′-flanking and promoter region were constructed in the pGL3-LUC vector (Promega). The PPARα 5′-flanking sequence between −2800 bp and +100 bp was cloned into NheI digested pGL3-LUC to generate the PPAR (−2800/+100) LUC plasmid Each transfection was performed in triplicates. The cells were transfected 24 h after plating together with fresh medium containing ligand. After 72 h cells were harvested, cytosol extracts were prepared and LUC activities were measured according to the Promega protocol. Results were normalized against β-galactosidase activities measured by incubating 100 μl extract with 0.28 mg o-nitrophenyl-D-galactoside (ONPG) in 50 mM phosphate buffer pH 7.0, 10 mM KCl, 1 mM MgCl2 for 30 min at 30° C. and reading absorbance at 420 nm.

[2] = system: THP-1 cells; assay: CellTiter 96 Non-Radioactive cell proliferation (MTS) assay, 48 h; format: cell-based, human; conditions: for IC50: THP1 cells, 48 hours incubation, read-out: THP1 cells, IC50 μM ± SD
Protocol: (§1) The U937 and THP-1 cell lines were seeded, 20 000 cells per well, in 96-well-plates. 50 μl cell culture medium was added to each well. At the same time test compounds were added in 5 different concentrations and incubated for 48 hours. The CellTiter 96® Non-Radioactive cell proliferation assay (Promega) was used to study the cytotoxicity of test compounds in these cells. This assay is a colorimetric method for determining the number of viable cells in proliferation or chemosensitivity assays. It is composed of solutions of a novel tetrazolium compound (3-(4,5-dimethylthiazol-2-yl)-5-(3-carboxymethoxyphenyl)-2-(4-sulfophenyl)-2H-tetrazolium, inner salt; MTS) and an electron coupling reagent (phenazine methosulfate; PMS). MTS is bioreduced by cells into a formazan product that is soluble in tissue culture medium. The absorbance of the formazan at 490 nm can be measured directly from 96 well assay plates without additional processing. The quantity of formazan product as measured by the amount of 490 nm absorbance is directly proportional to the number of living cells in culture (IC50 values). The test compounds were fluticasone propionate and fluticasone elaidic acid derivative.

[3] = system: U937 cells; assay: as above; format: cell-based, human; conditions: for IC50: read-out: U937 cells, IC50 μM ± SD
Protocol: as §1

[4] = system: GM-CSF release; assay: Inhibition of IL-1β-stimulated GM-CSF release in A549 TRE cells; format: cell-based; conditions: for IC50: IL-1β-stimulated, 24 hours exposure; for fold more potent inhibition of GM-CSF release compared to fluticasone propionate: versus fluticasone propionate
Protocol: IL-1β-stimulation causes an increase in granulocyte-macrophage colony-stimulating factor (GM-CSF) release after 24 hours in A549 TRE (AP-1 regulation) cells. Inhibition of the GM-CSF release is measured after 24 hours exposure to a test compound.

[5] = system: GRE-luciferase; assay: Induction of GRE-luciferase activity in stably transfected A549 GRE-luciferase cells; format: cell-based
[6] = listed as fluticasone elaidic acid ester derivative

| Molecule | luciferase activity/β-galactosidase (in percent (%) of Fluticasone propionate) [1] | luciferase activity/β-galactosidase (in percent (%) of Fluticasone propionate) ([1]; listed as flumethasone elaidic acid ester derivative) | IC50 [2] | IC50 ([3]; 48 hours incubation) | luciferase activity/β-galactosidase (in percent (%) of Fluticasone propionate) ([1]; listed as Fluticasone elaidic acid ester derivative) | luciferase activity/β-galactosidase (in percent (%) of Fluticasone propionate) [1, 6] | gene activation less than fluticasone propionate ([1]; activation as a measure for side effects) | fold decrease in side effects (activation of GRE elements) ([1]; versus fluticasone propionate) | IC50 [4] | fold more potent inhibition of GM-CSF release compared to fluticasone propionate [4] | fold more potent inhibition of GM-CSF release compared to fluticasone propionate ([4]; listed as flucticasone elaidic acid ester derivative) | fold more potent inhibition of GM-CSF release compared to fluticasone propionate [4, 6] | effect on GRE-luciferase activity [5] | IC50 ([2]; Homo sapiens, THP-1) | activity in THP1 cells (resistance) ([2]; up to 100 μM) | IC50 ([3]; Homo sapiens, U-937, 48 hours incubation) | activity in U937 cells (resistance) ([3]; up to 100 μM) | IC50 ([4]; Homo sapiens) | EC50 ([5]; Homo sapiens, read-out: EC50 of induction of GRE-luciferase reporter activity) |
| --- | --- | --- | --- | --- | --- | --- | --- | --- | --- | --- | --- | --- | --- | --- | --- | --- | --- | --- | --- |
| 6α,9α-Difluoro-16α-elaidoyloxy-11β-hydroxy-16α-methyl-3-oxoandrosta-1,4-diene-17β-carboxylic acid | 2% | 2% | – | – | – | – | – | – | – | – | – | – | – | – | – | – | – | – | – |
| CCCCCCCCC=CCCCCCCCC(=O)OC1(C(=O)SCF)C(C)CC2C3CC(F)C4=CC(=O)C=CC4(C)C3(F)C(O)CC21C (centres unmarked) [Fluticasone elaidic acid derivative] | – | – | 10 µM | 1 µM | 15% | 15% | 85% | 7 fold | 0.014 nM | 22 fold | more than 20 fold | 22 fold | lack of effect | – | – | – | – | – | – |
| CCC(=O)O[C@]1(C(=O)SCF)[C@H](C)C[C@H]2[C@@H]3C[C@H](F)C4=CC(=O)C=C[C@]4(C)[C@@]3(F)[C@@H](O)C[C@@]21C [Fluticasone propionate, reference compound] | 100% | – | – | – | – | – | – | – | – | – | – | – | – | > 100 µM | no activity seen up to 100 μM | > 100 µM | no activity seen up to 100 μM | 0.31 nM | 0.51 nM |
